In brackets after ≈: the same amount, converted by molar mass.
Legend:
[1] = test system: acne model mice (Propionibacterium acnes ATCC 6919 injected into the left ear); assay: Acne model in mice: auricular thickness, redness and swelling of the left ear; type: in vivo, Balb/C mice
Method: Experimental strain: Propionibacterium acnes ATCC 6919 (Beijing Biobw Biotechnology Co., Ltd.) Experimental animals: Balb/C mice (Zhejiang Vital River Laboratory Animal Technology Co., Ltd.) Balb/C mice were grouped and numbered, and adaptively fed for one week. On the day of modeling, Propionibacterium acnes was taken, and OD600 was measured using a microplate reader. BH1 culture medium was diluted to OD600=1 (about 5×10^8 CFU/mL), centrifuged to discard supernatant, and the remaining culture was diluted to 1×10^8 CFU/mL with PBS. Once the molding began, the mice were anesthetized with a small animal anesthesia machine, the air flow and isoflurane content of the anesthesia machine were adjusted, and the mice were placed in an anesthesia induction chamber for anesthesia induction. After there were no obvious signs of activity, the mice were taken out and their toes were clamped with tweezers or hemostatic forceps for toe pinching reaction testing, if there was no retraction pain response, the surgery could be performed. The anesthetized mice were placed on a mice plate and fixed, the air flow or isoflurane content was adjusted to maintain anesthesia (isoflurane anesthesia induction content of 3% to 4%, anesthesia maintenance content of 1% to 2%, and air flow rate of 300 mL/min to 500 mL/min). Blank control group: 20 μL of PBS was intracutaneously injected into the left ear of each mouse. Model group, drug group to be tested: 20 μL suspension of Propionibacterium acnes in PBS was intracutaneously injected into the left ear of each mouse. After the injection of Propionibacterium acnes, the mice in each group were administered according to the methods of administration and dosages described in Table 5 at 4 hours, 20 hours, 28 hours, and 44 hours. […] The drugs to be tested included Compound 6, Compound 7, and Compound 12, all of which were in a form of hydrochloride. In this experiment, Compound 6, Compound 7, and Compound 12 all referred to the corresponding hydrochloride drugs with a solvent of 40% DMSO+60% glycerol, the drugs were added into DMSO, heated to 100° C. in a water bath, and then glycerol was added thereto to obtain a bright yellow viscous solution. Administration area: Propionibacterium acnes was injected into the left ear. Administration time: the drugs were administrated at 4 hours, 20 hours, 28 hours, and 44 hours post-injection of Propionibacterium acnes, a total of 4 times. Balb/C mice were anesthetized with a small animal anesthesia machine and isoflurane in Compound 6 group, Compound 7 group, Compound 12 group, and model group. […] Auricular thickness measurement: after Propionibacterium acnes was injected for 48 hours, the auricular thicknesses of mice were measured with a vernier caliper.

[2] = test system: Staphylococcus epidermidis ATCC 12228; assay: Minimum inhibitory concentration (MIC) assay, Staphylococcus epidermidis ATCC 12228; type: cell-based; details: ATCC12228, aerobic culture 35+/-2°C, 16 to 20 hours, read with naked eyes
Method: (§1) On the day of the experiment, the compound in the flask was dissolved in 100% DMSO until the concentration of mother liquor was 0.4 mg/mL. If the mother liquor was not used on the same day, it was stored at −80° C. for future use.
(§2) The compound mother liquor and standard antibiotics were subjected to 2-fold gradient dilution with corresponding solvents on a 96-microwell plate (V-bottom) to obtain 100× working solutions (Well 1 to Well 7) in sequence. Among them, the concentrations of the compound were 400 μg/mL, 200 μg/mL, 100 μg/mL, 50 μg/mL, 25 μg/mL, 12.5 μg/mL, 6.25 μg/mL, and 3.125 μg/mL. 100% DMSO was used as growth control (Well 8). As such, the compound motherplate was obtained.
(§3) One day before the experiment, aerobic bacteria (Staphylococcus epidermidis) stored in a cryogenic tube at −80° C. were scribed on an MHA (Cation-adjusted Mueller-Hinton agar) plate. The aerobic bacteria were placed in a 35+/−2° C. incubator for 18-24 hours of aerobic cultivation.
(§4) On the day of the experiment, the plate was taken out, clones were picked from the plate and suspended in physiological saline. Then, the turbidity of the bacterial suspension (containing 1.0-2.0×10^8 CFU/mL) was adjusted to OD600=0.2 by a turbidity meter. Then, the adjusted bacterial suspension was diluted to an appropriate concentration with the assay culture medium: about 5×10^5 CFU/mL for aerobic bacteria, and about 1×10^6 CFU/mL for anaerobic bacteria. As such, the inoculating solution was obtained.
(§5) 2 μl of 2-fold series dilution of 100× high-concentration working solution was transferred from a compound mother plate (prepared in step 1) to a round-bottom 96-well plate, and then 198 μL of bacterial inoculating solution (prepared in step 2) was added to each well to obtain an MIC assay plate. Therefore, the final assay concentrations of the compound were 4 μg/mL, 2 μg/mL, 1 μg/mL, 0.5 μg/mL, 0.25 μg/mL, 0.125 μg/mL, 0.06 μg/mL and 0.03 μg/mL. The total volume of each well on the assay plate was 200 μL: containing 1% DMSO, about 5×10^5 CFU/mL of aerobic bacteria and about 1×10^6 CFU/mL of anaerobic bacteria.
(§6) All assay plates for aerobic bacteria were aerobically cultured at 35+/−2° C. for 16 to 20 hours, and all assay plates for anaerobic bacteria were anaerobically cultured in an anaerobic incubator at 35+/−2° C. for 48 hours.

[3] = test system: Staphylococcus epidermidis ATCC 35983; assay: Minimum inhibitory concentration (MIC) assay, Staphylococcus epidermidis ATCC 35983; type: cell-based; details: ATCC35983, aerobic culture 35+/-2°C, 16 to 20 hours, read with naked eyes
Method: as §1, §2, §3, §4, §5, §6

CN(C)c1cc2c(cn1)-c1ccc3c(=O)c(C(=O)O)cn(C4CC4)c3c1COC2 [Compound 6] was tested, and the “redness and swelling on the left ears of mice” value ([1]; Balb/C mice acne model, macroscopic, after treatment, drugs as hydrochloride, in words) was “reduced to varying degrees”, the “Auricular thickness (% of Blank) Mean ± SD” value ([1]; Balb/C mice, left ear, 48 hours after injection of Propionibacterium acnes, 15 μL applied at 4, 20, 28, 44 hours, drugs as hydrochloride) was 112.71 ± 17.19 % of Blank and the “Auricular thickness Mean ± SD” value ([1]; Balb/C mice, left ear, 48 hours after injection of Propionibacterium acnes, 15 μL applied at 4, 20, 28, 44 hours, drugs as hydrochloride in 40% DMSO+60% glycerol) was 0.51 ± 0.08 mm. The “auricular thicknesses of the left ears of mice after treatment” value ([1]; compared with acne model group, p<0.05, in words) was “significantly reduced”, the MIC [2] was 0.06 µg/mL (≈ 0.153 µM) and the MIC [3] was 0.06 µg/mL (≈ 0.153 µM).

Reference: patent US20250042912A1, “NOVEL NON-FLUORINATED QUINOLONE COMPOUND AND USE THEREOF” (priority 2021, published 2025)
